Measurements: publication PMC5976665, “Identification of a peptide for folate receptor alpha by phage display and its tumor targeting activity in ovary cancer xenograft” (Scientific Reports, 2018)
Residues, ends and D or L forms follow the SMILES beside them. No end group written: not given here. *: point of attachment. FITC = O=C1OC2(c3ccc(O)cc3Oc3cc(O)ccc32)c2ccc(NC(=S)*)cc21

Experiments:
SKOV3 xenograft tumor = assay: Tumor targeting of FITC conjugated synthetic peptide by fluorescence imaging; type: in vivo, nude mouse; conditions: 200 μL of 10 mg/mL in PBS i.v., 2 h circulation, liver, lung, kidney, heart, ovary
Experimental: FITC conjugated peptide C7 was chemically synthesized by GL Biochem (Shanghai, China) and purified by high-performance liquid chromatography with more than 95% purity and confirmed by mass spectrometry. The FITC conjugated peptide was evaluated in tumor bearing mice for its tumor targeting capability. The peptide was dissolved in PBS at a concentration of 10 mg/mL and 200 μL was injected intravenously into a tumor bearing nude mouse. After 2 h circulation, tumor and other organ tissues (liver, lung, kidney, heart, and ovary) were harvested and analyzed using Carestream IS4000 fluorescence imaging system.

SKOV3 cells [1] = assay: Cell internalization by confocal microscopy, SKOV3 cells; type: cell-based, human; conditions: FITC conjugated peptide 200 μg/mL, 4 hours at 37 °C
Experimental: To visualize internalization of synthesized peptide C7 into cells, SKOV3 or HepG2 cells were seeded in 24 well plates (10^5 cells/well) containing coverslips and incubated for 24 hours in RPMI 1640 medium with 10% FBS. FITC conjugated peptide C7 or PB-TUP[24] (VHWDFRQWWQPS) (200 μg/mL) was incubated with the cells for 4 hours at 37 °C. After incubation, the cells were washed once with PBS and fixed in 4% paraformaldehyde for 10 min. Cells were then washed three times with PBS and stained with DAPI for 20 min at room temperature. Internalized fluorescent signals were imaged with a Zeiss LSM800 confocal microscope.

SKOV3 cells [2] = assay: Cell-based ELISA of phage clones on SKOV3 cells; design: species or system human; conditions: FRα positive cells, fixed; 10^10 phages per well, 37 °C 2 h, HRP anti-M13
Excerpt: (§1) Phage clones with high ELISA value were further tested by cell-based ELISA. SKOV3 (human epithelial ovarian cancer cell) is a FRα expressing cell line and was used to evaluate the binding of selected phage clones to natural FRα protein on cell surface. HEPG2 (Human Liver Carcinoma Cell) without FRα expressing was used as a negative control. Both cell lines were purchased from Shanghai Cell Biology Institutes (Academia Sinica, Shanghai, China) and maintained in RPMI 1640 Medium with 10% fetal bovine serum and antibiotics. The presence or absence of FRα expression of the two cell lines were confirmed by flow cytometry described in 2.4. The cells were cultured in 96-well plate to 80% confluence and fixed with 4% paraformaldehyde. After blocking with 3% BSA for 2 h, 10^10 individual phages were added to each well and incubated at 37 °C for 2 h. Then the plate was washed with PBST for three times and cell-bound phage was detected with HRP-conjugated anti-M13 IgG (1:10000) as described in phage ELISA.

HepG2 cells = assay: Cell-based ELISA of phage clones on HepG2 cells; design: species or system human; conditions: FRα negative cells, fixed; 10^10 phages per well, 37 °C 2 h, HRP anti-M13
Excerpt: as §1

SKOV3 implanted tumor = assay: In vivo homing of phage clones in SKOV3 xenografts; design: species or system Balb/c nude mice; conditions: 2 × 10^11 phages i.v., circulated 15 min, phage titration per gram of tissue, n = 3
Experimental: Female Balb/c nude mice aged 6–8 weeks were purchased from the Yangzhou University Animal Center. All the animal studies were performed in compliance with the National Institutes of Health Guide for the Care and Use of Laboratory Animals and approved by IACUC (Institutional Animal Care and Use Committee of China Pharmaceutical University). The authors confirm that experiments involving laboratory animals adhered to the ethical standards of National Institutes of Health Guide and China Pharmaceutical University. The laboratory animals were used under the experimental animal production license 2121922. All animals were housed in a controlled environment (25 °C; 12 h light-dark cycle), with water and food provided freely. 2 × 10^6 SKOV3 cells were subcutaneously injected into the left flank of mice to generate epithelial ovarian cancer xenografts. 2 × 10^11 individual purified phage clones were injected intravenously and circulated for 15 min. After anesthetized with 10 mg/kg […] (5% w/v), the mice were perfused through the heart. Then, the tumor and main organs (liver, lung, kidney, heart and ovary) were harvested, weighed and homogenated. The homogenated tissues were washed, and lysed with 1% NP40. Bound phages were recovered by elution and titrated as described. The distribution of phages was calculated as phages per gram.

SKOV3 cells [3] = assay: Flow cytometry of phage clone binding to SKOV3 cells; type: cell-based, human; conditions: 4 °C 1 h, mouse anti-M13 and FITC goat anti-mouse antibody
Experimental: SKOV3 cells were collected and suspended in 2% FCS-PBS medium at 1 × 10^6 cells/mL. Purified phage clones were incubated individually with the cells at 4 °C for 1 h. The cells were washed twice with 2% FCS-PBS by 5 min centrifugation at 300 g. Mouse anti-M13 antibody was diluted with 2% FCS-PBS (1:400) and incubated with cells for 30 min at 4 °C. After washing, the cells were stained for 30 min at 4 °C with FITC conjugated goat anti-mouse antibody (Fcmacs, Inc., Nanjing). Cells were analyzed as described above.

[4] = molecular target: T1, Native human folate receptor alpha (FRα) on SKOV3 cells (human (endogenous in SKOV3), UniProt P15328 25-234); assay: flow cytometry on cells; purified phage clones incubated with SKOV3 cells (1 × 10^6 cells/mL, 2% FCS-PBS) at 4 °C for 1 h; mouse anti-M13 antibody and FITC goat anti-mouse antibody; M13KE as negative control; conditions: one partner purified
T1 construct: folate receptor alpha, endogenous on the surface of SKOV3 human epithelial ovarian cancer cells; also called natural FRα protein on cell surface; source: endogenous, on SKOV3 cells

[5] = molecular target: T2, Recombinant human folate receptor alpha (FRα) (human, UniProt P15328 25-234); assay: MST; serial dilutions of FITC conjugated C7 in PBS pH 7.4 mixed with purified FRα protein (1 μg/mL), 5 min at room temperature; Monolith NT.115, standard capillaries; KD from the Hill formula; conditions: both partners purified
T2 construct: folate receptor alpha, human; also called recombinant folate receptor α; purified FRα protein; source: E. coli system, purified with a Ni-column
T2 sequence (P15328 25-234): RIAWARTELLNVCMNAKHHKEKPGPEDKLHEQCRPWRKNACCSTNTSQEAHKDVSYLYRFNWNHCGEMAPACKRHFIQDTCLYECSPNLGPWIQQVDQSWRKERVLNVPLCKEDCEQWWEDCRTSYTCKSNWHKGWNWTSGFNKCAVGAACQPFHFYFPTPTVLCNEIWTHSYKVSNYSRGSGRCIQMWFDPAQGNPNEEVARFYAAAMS

T1 sequence (P15328 25-234): as above

Molecule	binding to SKOV3 cells in cell-based ELISA (SKOV3 cells [2])	binding to HepG2 cells in cell-based ELISA (HepG2 cells)	specific binding to SKOV3 cells (FITC+ cells) (SKOV3 cells [3])	percent specific binding to SKOV3 cells [4]	other results
CSCC[C@H](NC(=S)Nc1ccc2c(c1)C(=O)OC21c2ccc(O)cc2Oc2cc(O)ccc21)C(=O)N[C@@H](Cc1c[nH]cn1)C(=O)N[C@H](C(=O)N[C@@H](C)C(=O)N1CCC[C@H]1C(=O)NCC(=O)N[C@@H](Cc1c[nH]c2ccccc12)C(=O)NCC(=O)N[C@@H](Cc1ccc(O)cc1)C(=O)N[C@@H](CCCNC(=N)N)C(=O)N[C@@H](CC(C)C)C(=O)N[C@@H](CO)C(=O)O)[C@@H](C)O [C7, Met-His-Thr-Ala-Pro-Gly-Trp-Gly-Tyr-Arg-Leu-Ser] ({FITC}-MHTAPGWGYRLS-OH; N-terminus and C-terminus assumed)					fluorescence signal in the tumor compared with other organs (SKOV3 xenograft tumor): significantly stronger compared to that in other organs except liver and kidney; internalization into SKOV3 cells (SKOV3 cells [1]): can be internalized
MHTAPGWGYRLS [phage clone C7, phage clone from Ph.D.-12 library displaying the C7 dodecapeptide]	highest binding	relatively low binding	51.2%		phage enrichment in tumor tissue relative to M13KE phage in tumor (SKOV3 implanted tumor): 49 fold; phage titer in tumor relative to normal ovary (SKOV3 implanted tumor): 190 fold
MNPYPRTPWPHV [phage clone G12, phage clone displaying Met-Asn-Pro-Tyr-Pro-Arg-Thr-Pro-Trp-Pro-His-Val]	highest binding	relatively low binding	41.8%		
GALLPSMNKGHW [phage clone B8, phage clone displaying Gly-Ala-Leu-Leu-Pro-Ser-Met-Asn-Lys-Gly-His-Trp]	highest binding	relatively low binding			
YTNPYYSSHTRN [phage clone G8, phage clone displaying Tyr-Thr-Asn-Pro-Tyr-Tyr-Ser-Ser-His-Thr-Arg-Asn]	highest binding	relatively low binding	36.0%		
MHTAPGWGYRLS (dodecapeptide selected by phage display; printed in three-letter code; the synthetic FITC peptide is m18; also called C7 phage clone; source: M13 phage clone from the Ph.D.-12 library, amplified in E. coli ER2738; purified phage for flow cytometry) [Phage clone C7]				51.2%	
{FITC}-MHTAPGWGYRLS (dodecapeptide of phage clone C7, chemically synthesized; printed in three-letter code; also called C7 peptide; synthesized peptide C7; source: synthetic peptide (GL Biochem, Shanghai; HPLC, more than 95% purity)) [FITC conjugated peptide C7]					Kd [5]: 300 nM
MNPYPRTPWPHV (dodecapeptide selected by phage display; printed in three-letter code; source: M13 phage clone from the Ph.D.-12 library, amplified in E. coli ER2738; purified phage for flow cytometry) [Phage clone G12]				41.8%	
GALLPSMNKGHW (dodecapeptide selected by phage display; printed in three-letter code; source: M13 phage clone from the Ph.D.-12 library, amplified in E. coli ER2738; purified phage for flow cytometry) [Phage clone B8/H1/G4]				31.8%	
YTNPYYSSHTRN (dodecapeptide selected by phage display; printed in three-letter code; source: M13 phage clone from the Ph.D.-12 library, amplified in E. coli ER2738; purified phage for flow cytometry) [Phage clone G8]				36%	
